According to patent publication US4487708A (priority 1981, dated 1984):

Legend:
[1] = oxygen scavenging efficacy at elevated temperature and pressure (hot water flow system)
Procedure: In a first series of tests, the oxygen scavenging efficacies of various materials were evaluated under conditions of elevated temperature and pressure. The test apparatus used was essentially a stainless steel hot water flow system equipped with appropriate monitoring instrumentation. Demineralized feedwater, adjusted to the appropriate pH and initial dissolved oxygen level (controlled by nitrogen sparging), was pumped from a reservoir at ambient temperature into a once-through heater. Temperature was monitored continuously by means of thermocouples at several locations along the length of the flow tubing. A solution containing the oxygen scavenger test material was loaded into a pump driven syringe and fed continuously to the heated flow stream through a port containing a stainless steel ribbon mixing baffle. The feedwater containing dissolved oxygen and the test material then traversed the flow tubing via a by-pass comprising an additional length of coiled tubing. Contact (or reaction) time of the test material and dissolved oxygen was governed by the choice of coil length. The tendency of the temperature to drop during residence in the coiled tubing was offset by the use of thermostatted heating tapes which maintained the temperature in this tubing at 78±3° C. Upon exiting the coiled tubing, the stream flowed through a sample cooler to render the temperature of the liquid compatible with the operating range of a membrane-type dissolved oxygen probe. The cooled liquid was analyzed for dissolved oxygen via a D.O. flow cell, and pH was potentiometrically monitored in the flow tube immediately downstream of the D.O. probe. Outputs of the temperature, pH and dissolved oxygen probes during operation were monitored via strip chart recorders. The final destination of the reaction mixture was a reservoir which could be drained for analysis of reaction products, if desired.
Temperature in the system could be maintained at 78±3+ C. under 4±1 psig. Residence time of the feedwater in the flow tube from chemical feed point to D.O. flow cell outlet was 4±0.2 minutes. Approximately 3.5 minutes of this total was spent in a 40' length of 0.402 inch i.d. coiled tubing. Entry into and residence in the sample cooler accounted for 0.5 minute of the total contact time.
According to an article by J. W. Cohn and R. E. Powell, Jr., J. Amer.
The test solutions were prepared by initially mixing 10 grams of test material and 90 grams of demineralized water in glass bottles and allowing the mixture to remain in a shaker for several hours. If complete dissolution for a given material was observed after shaking, the pH of the solution was measured. When the pH of the solution was below 10.0, 7N sodium hydroxide was added dropwise until this value was reached. The quantity of added sodium hydroxide was recorded and later used in corrections for the active concentration of the solution. When the pH value of a stock solution was above pH 10.0 without requiring the addition of caustic, the solution was not further modified.
Results of these tests are reported in TABLE 1 below in terms of percent oxygen removed from the test stream. The precision of the initial and final dissolved oxygen values reported is approximately ±10%. […] The experimental uncertainties decrease with increasing values of percent dissolved oxygen removal.
The specific experimental conditions were:
Reaction Time=240±10 seconds

[2] = compatibility of neutralizing amines with hydroquinone in solution; format: physicochemical; conditions: combined with hydroquinone
Text: To provide convenient single-drum treatments, it was decided to test-formulate various dioxo aromatic compounds with neutralizing amines.

[3] = oxygen removal from feedwater of a working boiler (Example 2)
Procedure: In order to compare the performance of hydroquinone with that of hydrazine under field-type conditions, a series of experiments were conducted on the feedwater of a working boiler. The test materials were fed to the deaerator storage tank, and the resultant change, if any, in dissolved oxygen level was measured on a sample flowing from the feedwater line through a membrane-type dissolved oxygen probe.
During the tests, a relatively wide range of experimental conditions was encountered among the test parameters, reflecting the difficulty of attempting to obtain precise data during experiments performed on a working boiler.
In order to provide some point of reference for judging oxygen scavenging efficacies while taking into account the diverse conditions experienced on a daily basis, hydrazine control runs were performed, whenever possible, under feedwater and boiler conditions similar to those encountered during testing of other test materials. The hydrazine control runs are reported below in Table 3, also in terms of % oxygen removal.

[4] = room temperature oxygen scavenging test (flask with dissolved oxygen probe); conditions: for % O2 Removed, 1 Minute: hydroquinone: pH 8.6, 22.5 °C, ratio 0.94, initial O2 7.7 ppm; for % O2 Removed: 60 seconds; for % O2 Removed / % O2 Removed At 60 Seconds: 23-25 °C; for % O2 Removed At 60 Seconds: Table 11, hydroquinone 93 ppm
Text: The test apparatus basically consisted of a 1 liter, three-necked flask fitted with a dissolved oxygen probe and a pH electrode. The intent of this apparatus was to show reaction kinetics differences rather than precise measurements (within seconds) of reaction times.
The flask was filled with deionized water which had been stripped of some dissolved oxygen by bubbling nitrogen through a diffuser stone. The pH was adjusted to the desired level with sodium hydroxide. The flask was sealed with a rubber septum, the dissolved oxygen probe and the pH electrode. A magnetic stirrer bar was left in the flask for mixing. The mixer was turned on, and dissolved oxygen and temperature readings were recorded until the dissolved oxygen reached a constant value. Next, the appropriate quantity of additive was injected through the septum using a hypodermic syringe. The initial mole ratio of treatment to dissolved oxygen was determined by weighing feed chemical and measuring the oxygen concentration. […] Dissolved oxygen and temperature readings were then taken at appropriate time intervals.
Using the same apparatus and procedure as described in Example 4 above, oxygen scavenging experiments were performed by injecting 1 ml of stock solution into a glass vessel containing 1070 ml of air-saturated, demineralized water adjusted to the appropriate pH with 7N sodium hydroxide. […] The final pH values indicated are for the test water.
The stock solution concentrations are presented in terms of weight % aqueous. The stock solutions were each 100 grams total. […] The tests were conducted at ambient temperature (23°-25° C.).
The tests were conducted at ambient temperature (23°-25° C.).

[5] = cited from earlier work
[6] = dissolution and storage stability of hydroquinone/methoxypropylamine solutions; format: physicochemical
Procedure: The following 25 gram solutions were prepared and sealed in glass bottles (components listed in order of addition):
Fifty (50) grams of each of the following solutions were prepared in glass bottles, sealed and placed on a shaker for two hours: […]

[7] = for mu-amine required to effect dissolution: saturated solution, 10.0 g hydroquinone (6.3 + 3.7 g) in 89.5 g water
Procedure: Volumes of mu-amines required to effect dissolution were recorded and converted to weights via density.

[8] = thermal stability of amines / dioxo aromatic compounds (no method given); format: physicochemical; conditions: of the amines tested
[9] = cited from earlier work; remark: listed apart in the source
[10] = Table 10, mu-amine combined with hydroquinone, 6.7 ppm each, 78±1 °C, 3-5 psig, 240±10 seconds, final pH 9.7, initial O2 1.0-1.5 ppm
[11] = Table 5, hydrazine: pH 9.2, 26.5 °C, ratio 10.5, initial O2 0.87 ppm
[12] = Table 1, 78±3 °C, 4±1 psig, contact 4±0.2 min, feedwater 58-100 ppm, pH 8.9-10.9, initial O2 1.8-2.3 ppm, hydrazine average of 9 runs, values below 20% may be artifacts
[13] = Table 9, mu-amine combined with hydroquinone, about 30 ppm / 10 ppm, 78±1 °C, 3-5 psig, 240±10 seconds, final pH 10.3, initial O2 500-750 ppb
[14] = Table 8, mu-amine combined with hydroquinone, 103 ppm each, final pH 9.3-10.5
[15] = stock mu-amine 1.5 / hydroquinone 10.0 wt. %, HQ:mu-amine 6.67:1
[16] = stock mu-amine 90.0 / hydroquinone 10.0 wt. %, HQ:mu-amine 1:9
[17] = stock mu-amine 99.0 / hydroquinone 1.0 wt. %, HQ:mu-amine 1:99
[18] = 6.3 g hydroquinone in 89.5 g demineralized water

With `CC(O)CN` (stereo not drawn) [Monoisopropanolamine] the “% O2 Removed” value [1, 10] was 98%.

For `C1COCCN1` [Morpholine], the “compatibility with hydroquinone in solution” value (from here on “compatibility”) [2] was “precipitated out of solution”.

With `NN` [hydrazine] the “% O2 Removed” value ([3]; Table 3, control run 1, 1.6 ppm actives, pH 8.8, steam load 11, initial O2 13.0 ppb) was 69%, the “% O2 Removed” value ([3]; Table 3, control run 2, 1.1 ppm actives, pH 9.4, steam load 15, initial O2 4.0 ppb) was 50% and the “% O2 Removed” value ([3]; Table 3, control run 3, 1.2 ppm actives, pH 8.6, steam load 15, initial O2 6.0 ppb) was 60%. For the same compound, the “% O2 Removed” value ([3]; Table 3, control run 4, 1.0 ppm actives, pH 8.8, steam load 15, initial O2 5.8 ppb) was 55%, the “% O2 Removed” value ([3]; Table 3, control run 5, 0.8 ppm actives, pH 9.4, steam load 11, initial O2 3.5 ppb) was 31% and the “% O2 Removed” value ([3]; Table 3, control run 6, 1.6 ppm actives, pH 9.6, steam load 14, initial O2 4.0 ppb) was 30%. For the same compound, the “% O2 Removed, 5 Minutes” value [4, 11] was 2%, the “% O2 Removed, 1 Minute” value [4, 11] was 1% and the “pH of maximum oxygen scavenging efficacy” value ([5]; Cohn and Powell 1954) was 10.0-10.5 pH. The decomposition temperature ([5]; forms ammonia) was “Above 400 ° F” and the “rate of reaction with oxygen” value ([5]; low temperatures, such as room temperature) was “very slow at low temperatures”.

For `Nc1ccc(N)cc1` [p-phenylenediamine, reference compound], the “% O2 Removed” value [1, 12] was 35%.

With `NCCN` [Ethylenediamine] the “% O2 Removed” value [1, 13] was 99% and the “% O2 Removed” value [4, 14] was 85%.

With `CCC(C)N` (stereo not drawn) [sec-Butylamine] the “% O2 Removed” value [4, 14] was 74% and the “compatibility” value [2] was “compatible with hydroquinone in solution”.

In the case of `Oc1cccc(O)c1` [resorcinol, reference compound], the “% O2 Removed” value [1, 12] is reported as 0%.

In the case of `Nc1ccccc1N` [o-phenylenediamine, reference compound], the “% O2 Removed” value [1, 12] is reported as 10%.

In the case of `CC(O)CNCC(C)O` (stereo not drawn) [Diisopropanolamine], the “% O2 Removed” value [4, 14] is reported as 86%.

In the case of `NC1CCCCC1` [Cyclohexylamine], the “compatibility” value [2] is reported as “precipitated out of solution”.

In the case of `COCCCN` [Methoxypropylamine], the “% O2 Removed” value [1, 10] is reported as 99%, the “% O2 Removed At 60 Seconds” value [4, 15] is reported as 96% and the “% O2 Removed At 60 Seconds” value ([4]; stock mu-amine 2.0 / hydroquinone 10.0 wt. %, HQ:mu-amine 5:1) is reported as 96%. For the same compound, the “% O2 Removed At 60 Seconds” value ([4]; stock mu-amine 3.0 / hydroquinone 10.0 wt. %, HQ:mu-amine 3.33:1) was 96%, the “% O2 Removed At 60 Seconds” value ([4]; stock mu-amine 15.0 / hydroquinone 15.0 wt. %, 1:1) was 95% and the “% O2 Removed At 60 Seconds” value ([4]; stock mu-amine 20.0 / hydroquinone 20.0 wt. %, 1:1) was 98%. The “% O2 Removed At 60 Seconds” value ([4]; stock mu-amine 30.0 / hydroquinone 30.0 wt. %, 1:1) was 98%, the “% O2 Removed At 60 Seconds” value ([4]; stock mu-amine 40.0 / hydroquinone 40.0 wt. %, 1:1) was 94% and the “% O2 Removed At 60 Seconds” value [4, 16] was 94%. For the same compound, the “% O2 Removed At 60 Seconds” value [4, 17] was 96%, the “% O2 Removed” value ([4]; Table 12, methoxypropylamine 1.0 / hydroquinone 1.0 wt. %, final pH 8.5) was 10% and the “% O2 Removed” value ([4]; Table 12, methoxypropylamine 1.0 / hydroquinone 6.0 wt. %, final pH 8.4) was 78%. For the same compound, the “% O2 Removed” value ([4]; Table 12, methoxypropylamine 3.0 / hydroquinone 3.0 wt. %, final pH 8.9) was 74%, the “% O2 Removed” value ([4]; Table 12, methoxypropylamine 6.0 / hydroquinone 1.0 wt. %, final pH 9.0) was 17% and the “% O2 Removed” value ([4]; Table 12, methoxypropylamine 6.0 / hydroquinone 6.0 wt. %, final pH 9.0) was 93%. The “lowest practical MOPA concentration in the mixture” value ([6]; 10% hydroquinone aqueous solution) was 2%, the “MOPA required to dissolve hydroquinone” value ([7]; 10.0 g hydroquinone, neat MOPA) was 12.5 grams and the “mu-amine required to effect dissolution” value [7] was 1.7 grams. For the same compound, the thermal stability [8] was “most thermally stable of the amines tested”.

In the case of `NCCO` [Monoethanolamine], the “% O2 Removed” value [4, 14] is reported as 75%.

In the case of `CC(C)(C)N` [tert-Butylamine], the “compatibility” value [2] is reported as “insoluble mass”.

In the case of `CN(C)CCCN` [Dimethylaminopropylamine], the “% O2 Removed” value [4, 14] is reported as 76%, the “% O2 Removed At 60 Seconds” value [4, 15] is reported as 94% and the “% O2 Removed At 60 Seconds” value ([4]; stock mu-amine 30.0 / hydroquinone 10.0 wt. %, HQ:mu-amine 1:3) is reported as 99%. For the same compound, the “% O2 Removed At 60 Seconds” value [4, 16] was 98%, the “% O2 Removed At 60 Seconds” value [4, 17] was 50% and the “mu-amine required to effect dissolution” value [7] was 1.7 grams.

With `NCCNCCNCCN` [Triethylenetetramine] the “% O2 Removed” value [4, 14] was 89%.

With `Oc1ccc(O)cc1` [hydroquinone] the “% O2 Removed” value [1, 12] was 97%, the “% O2 Removed, 1 Minute” value [4, 11] was 29% and the “% O2 Removed” value ([4]; Table 12, mu-amine 0 / hydroquinone 1.0 wt. %, final pH 8.1) was 9%. For the same compound, the “% O2 Removed” value ([4]; Table 12, mu-amine 0 / hydroquinone 3.0 wt. %, final pH 8.0) was 17%, the “% O2 Removed” value ([4]; Table 12, mu-amine 0 / hydroquinone 6.0 wt. %, final pH 7.9) was 27% and the “active hydroquinone concentration of stable aqueous solution” value ([6]; 1 to 1 with methoxypropylamine (40%), sealed storage for 12 days) was “up to 40%”. For the same compound, the “dissolution time, solution #1” value [7, 18] was 23 min, the “dissolution time, solution #2” value [7, 18] was 19 min and the “dissolution time, solution #3” value [7, 18] was 21 min. For the same compound, the “aqueous solubility (accepted literature value)” value ([9]; 25 °C) was ~7% and the solubility in water ([9]; hydroquinone alone) was “about 7%”.

In the case of Dimethyl(iso)propanolamine, the “% O2 Removed” value [1, 13] is reported as 98% and the “% O2 Removed” value [4, 14] is reported as 73%.
